# Measured values: patent US10473645B2, “Methods for identifying a receptor for a ligand and uses thereof” (UNIVERSITE DE GENEVE, priority 2014, dated 2019)
# Experiments:
# OSNs expressing olfr935 = assay: pS6 immunolabeling with OR in situ hybridization after odorant exposure; type: in vivo, mouse; settings: 5% acetophenone, 60 minutes
# Description: (§1) In order to independently validate the identity of an acetophenone receptor obtained with the RNAseq approach, the potential colocalization following acetophenone exposure of a neuronal activity marker (the phosphorylated ribosomal protein S6 (pS6) (Knight et al., 2012, Cell, 151, 1126-1137) and specific olfactory receptors were evaluated. To this aim, in-situ hybridizations were performed on sections of olfactory tissue with probes targeting receptor mRNAs followed by immunolabeling of pS6. The probes used were directed against the transcripts of most of the ORs determined as responsive including Olfr983 transcripts (encoding a known acetophenone receptor), Olfr171 transcripts (encoding a known ethyl isobutyrate receptor), and Olfr145 transcripts, encoding a newly identified receptor by RNAseq. Before analysis, mice were exposed to either 5% acetophenone, 5% ethyl isobutyrate, or a negative control condition for 60 minutes. […] 66% (Olfr983) and 70% (Olfr145) of the neurons were positive for pS6 after acetophenone exposure, while only 11% of the neurons expressing Olfr171 were positive for pS6 after exposure to this compound.
# OSNs expressing olfr556 = assay: as above; type: in vivo, mouse; settings: 5% acetophenone, 60 minutes
# Description: as §1
# OSNs expressing olfr143 = assay: as above; type: in vivo, mouse; settings: 5% acetophenone, 60 minutes
# Description: as §1
# OSNs expressing olfr478 = assay: as above; type: in vivo, mouse; settings: 5% acetophenone, 60 minutes
# Description: as §1
# OSNs expressing olfr745 = assay: as above; type: in vivo, mouse; settings: 5% acetophenone, 60 minutes
# Description: as §1
# OSNs expressing olfr160 = assay: as above; type: in vivo, mouse; settings: 5% acetophenone, 60 minutes
# Description: as §1
# olfr476 = target: T1, olfr476 (Mus musculus, UniProt Q8VGI4); assay: OR transcript level by RT-qPCR after in vivo odorant exposure; set-up: key: The transcript downregulation of 21 out of the 26 olfactory receptor candidates obtained by RNAseq was confirmed by qPCR; false RNAseq positive candidates, namely OR candidates for which in fact mRNA was not downregulated following acetophenone exposure; settings: 5% acetophenone exposure
# T1 construct: from tissue; host or cells: main olfactory epithelium of living mice
# T1 sequence (Q8VGI4 whole entry): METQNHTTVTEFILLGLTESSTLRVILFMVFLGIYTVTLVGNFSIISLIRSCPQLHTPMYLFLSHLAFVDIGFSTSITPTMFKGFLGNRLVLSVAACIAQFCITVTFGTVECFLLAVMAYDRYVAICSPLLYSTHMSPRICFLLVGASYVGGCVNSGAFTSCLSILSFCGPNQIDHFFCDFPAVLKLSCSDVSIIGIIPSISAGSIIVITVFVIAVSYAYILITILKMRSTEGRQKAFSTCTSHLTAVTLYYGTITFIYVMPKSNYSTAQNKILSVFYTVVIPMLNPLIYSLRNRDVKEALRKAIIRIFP
# Description: (§2) In vivo exposure to odorant: Starting 48 h before experiments, mice were habituated to pure DMSO on a cotton ball. 200 μl were pipetted directly onto the cotton and placed in the cage, replacing any cotton that was already in the cage for nest-making purposes.
# (§3) On the day of the experiment, mice receiving odorants were transferred to a different room, where they were exposed to a cotton ball on which 200 μl of odorant diluted in pure DMSO were deposited. Exposures started in the morning between 8 and 10 am (that is two hours after lights were on) and mice were killed and dissected between 1 and 3 pm. […] If a number of different odorants were tested in the same experiment, a different overpressurized room would always be used for each odorant to avoid odor cross-contamination.
# (§4) After odorant exposure, mice were killed by cervical dislocation and immediately decapitated. The main olfactory epithelia (MOE), were harvested in their entirety and transferred to a tube containing 600 μl of lysis buffer and β-mercaptoethanol (RNAeasy kit, Qiagen, following the manufacturer protocol) and a 0.5 cm diameter steel ball, and then put on ice. Samples were then homogenized using a FastPrep®-24 instrument (MP Biomedicals) at 6 m/s for 30 s and left on ice. RNA extraction was performed on all samples in parallel using the Qiagen RNeasy Mini® kit following the manufacturer's instructions. Two DNase treatments were performed on all samples: first using the Qiagen RNase-Free DNase Set® and then using the Life Technologies Ambion DNase I® kit. RNA samples were then aliquoted and stored at −80° C.
# (§5) RNA concentrations were determined using an Amersham Ultrospec® 3100 Pro spectrophotometer, and RNA quality was evaluated with an Agilent Technologies 2100 Bioanalyzer®. Each reverse transcription was performed with 0.5 μg RNA using the Takara Primescript® kit, in a final volume of 10 μl. Primers for reverse transcription were equal mixtures of poly-T nucleotides and random hexamers. Negative controls (omitting the reverse transcriptase enzyme) were performed for each sample. 1/14th of the cDNA preparation was used for each triplicated qPCR reaction.
# (§6) qPCR Ct values were analyzed using an in-house developed Microsoft Excel® macro file. Triplicate values were compared and outliers (values with a difference higher than 0.5 Ct to their nearest neighbor) were discarded. The number of conditions with an outlying value was always less than 10% of the total number of conditions. Ct values were converted to quantities relative to the maximum for each given gene. Selected reference genes were then analyzed for variance using the geNorm algorithm. All values were normalized with the olfactory tissue-specific genes Omp and Adcy3. β-Actin was used as a non-tissue-specific reference gene to control for differences in dissection between samples.
# (§7) Mice (n=6) were exposed to 5% acetophenone or to a “neutral” control condition for 5 hours. An olfactory cDNA library corresponding to each animal was deep sequenced and the ratios of odorant receptor mRNA concentrations relative to controls were plotted (FIG. 3). […] Based on transcriptional downregulation levels observed by RNAseq following acetophenone exposure, a list of 26 candidate responsive ORs was determined (FIG. 3), that reached 74% decrease (Olfr145) or even over 80% (Olfr169) relative to controls. […] The transcript downregulation of 21 out of the 26 olfactory receptor candidates obtained by RNAseq was confirmed by qPCR.
# olfr478 = target: T2, olfr478 (Mus musculus, UniProt Q8VG04); assay: as above; set-up: key: The transcript downregulation of 21 out of the 26 olfactory receptor candidates obtained by RNAseq was confirmed by qPCR; false RNAseq positive candidates, namely OR candidates for which in fact mRNA was not downregulated following acetophenone exposure; settings: 5% acetophenone exposure
# T2 construct: from tissue; host or cells: main olfactory epithelium of living mice
# T2 sequence (Q8VG04 whole entry): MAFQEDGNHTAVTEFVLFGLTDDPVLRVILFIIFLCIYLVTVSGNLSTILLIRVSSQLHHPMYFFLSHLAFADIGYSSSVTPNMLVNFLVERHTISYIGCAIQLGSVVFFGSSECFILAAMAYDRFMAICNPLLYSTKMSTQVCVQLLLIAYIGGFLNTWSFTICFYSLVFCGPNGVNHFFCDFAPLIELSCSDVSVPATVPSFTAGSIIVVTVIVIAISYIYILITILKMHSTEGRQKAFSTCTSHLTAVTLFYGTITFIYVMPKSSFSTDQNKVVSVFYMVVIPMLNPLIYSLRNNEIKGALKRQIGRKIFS
# Description: as §2, §3, §4, §5, §6, §7
# olfr145 = target: T3, olfr145 (Mus musculus, UniProt Q60882); assay: as above; set-up: key: The transcript downregulation of 21 out of the 26 olfactory receptor candidates obtained by RNAseq was confirmed by qPCR; false RNAseq positive candidates, namely OR candidates for which in fact mRNA was not downregulated following acetophenone exposure; settings: 5% acetophenone exposure
# T3 construct: from tissue; host or cells: main olfactory epithelium of living mice
# T3 sequence (Q60882 whole entry): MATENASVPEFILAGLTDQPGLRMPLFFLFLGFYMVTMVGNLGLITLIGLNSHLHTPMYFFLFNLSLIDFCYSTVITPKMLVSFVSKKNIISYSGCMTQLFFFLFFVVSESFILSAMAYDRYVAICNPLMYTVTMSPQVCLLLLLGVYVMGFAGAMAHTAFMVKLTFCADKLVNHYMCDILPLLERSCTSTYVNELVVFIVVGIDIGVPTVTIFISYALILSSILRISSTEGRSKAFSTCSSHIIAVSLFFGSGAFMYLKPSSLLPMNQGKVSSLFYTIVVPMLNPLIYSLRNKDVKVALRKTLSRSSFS
# Description: as §2, §3, §4, §5, §6, §7
# olfr143 = target: T4, olfr143 (Mus musculus, UniProt P34985); assay: as above; set-up: key: The transcript downregulation of 21 out of the 26 olfactory receptor candidates obtained by RNAseq was confirmed by qPCR; false RNAseq positive candidates, namely OR candidates for which in fact mRNA was not downregulated following acetophenone exposure; settings: 5% acetophenone exposure
# T4 construct: from tissue; host or cells: main olfactory epithelium of living mice
# T4 sequence (P34985 whole entry): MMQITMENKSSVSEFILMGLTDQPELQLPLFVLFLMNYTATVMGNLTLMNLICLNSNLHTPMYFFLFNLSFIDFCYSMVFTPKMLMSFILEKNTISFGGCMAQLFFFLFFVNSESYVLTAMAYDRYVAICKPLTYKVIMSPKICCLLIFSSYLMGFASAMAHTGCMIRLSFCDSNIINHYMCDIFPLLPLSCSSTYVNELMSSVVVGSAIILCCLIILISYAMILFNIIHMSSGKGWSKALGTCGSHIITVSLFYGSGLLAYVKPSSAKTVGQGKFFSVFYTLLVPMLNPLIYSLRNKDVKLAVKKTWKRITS
# Description: as §2, §3, §4, §5, §6, §7
# olfr19 = target: T5, olfr19 (Mus musculus, UniProt Q9JHB2); assay: as above; set-up: key: The transcript downregulation of 21 out of the 26 olfactory receptor candidates obtained by RNAseq was confirmed by qPCR; false RNAseq positive candidates, namely OR candidates for which in fact mRNA was not downregulated following acetophenone exposure; settings: 5% acetophenone exposure
# T5 construct: from tissue; host or cells: main olfactory epithelium of living mice
# T5 sequence (Q9JHB2 whole entry): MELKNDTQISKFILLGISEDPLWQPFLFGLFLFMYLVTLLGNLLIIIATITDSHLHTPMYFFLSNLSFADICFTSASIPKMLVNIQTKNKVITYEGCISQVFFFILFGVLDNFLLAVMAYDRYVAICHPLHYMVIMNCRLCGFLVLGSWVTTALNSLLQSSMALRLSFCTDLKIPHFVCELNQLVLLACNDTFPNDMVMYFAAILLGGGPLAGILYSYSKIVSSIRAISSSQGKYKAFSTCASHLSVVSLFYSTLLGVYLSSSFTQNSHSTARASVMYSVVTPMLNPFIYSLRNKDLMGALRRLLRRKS
# Description: as §2, §3, §4, §5, §6, §7
# olfr490 = target: T6, olfr490 (Mus musculus, UniProt Q8VFD2); assay: as above; set-up: key: The transcript downregulation of 21 out of the 26 olfactory receptor candidates obtained by RNAseq was confirmed by qPCR; false RNAseq positive candidates, namely OR candidates for which in fact mRNA was not downregulated following acetophenone exposure; settings: 5% acetophenone exposure
# T6 construct: from tissue; host or cells: main olfactory epithelium of living C57BL/6 mice
# T6 sequence (Q8VFD2 whole entry): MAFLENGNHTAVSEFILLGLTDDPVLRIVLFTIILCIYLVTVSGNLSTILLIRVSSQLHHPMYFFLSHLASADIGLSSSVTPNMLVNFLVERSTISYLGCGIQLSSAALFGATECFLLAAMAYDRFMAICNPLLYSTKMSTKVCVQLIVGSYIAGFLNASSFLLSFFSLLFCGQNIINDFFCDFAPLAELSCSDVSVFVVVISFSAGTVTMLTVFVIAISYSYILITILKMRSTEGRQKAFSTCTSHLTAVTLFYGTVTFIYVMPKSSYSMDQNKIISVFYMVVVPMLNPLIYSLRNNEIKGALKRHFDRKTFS
# Description: as §2, §3, §4, §5, §6, §7
smiles,measurement,setting,value
CC(=O)c1ccccc1 [acetophenone],olfr935 ps6 positive,OSNs expressing olfr935,y (neuronal activation (i.e. pS6 signal in a fraction of neuron exceeding 15% relative to controls))
same,olfr556 ps6 positive,OSNs expressing olfr556,y (neuronal activation (i.e. pS6 signal in a fraction of neuron exceeding 15% relative to controls))
same,olfr143 ps6 positive,OSNs expressing olfr143,y (neuronal activation (i.e. pS6 signal in a fraction of neuron exceeding 15% relative to controls))
same,olfr478 ps6 positive,OSNs expressing olfr478,y (neuronal activation (i.e. pS6 signal in a fraction of neuron exceeding 15% relative to controls))
same,olfr745 ps6 positive,OSNs expressing olfr745,y (neuronal activation (i.e. pS6 signal in a fraction of neuron exceeding 15% relative to controls))
same,olfr160 ps6 positive,OSNs expressing olfr160,y (neuronal activation (i.e. pS6 signal in a fraction of neuron exceeding 15% relative to controls))
same,olfr476 candidate OR (RNAseq) confirmed by qPCR,olfr476,y
same,olfr478 candidate OR (RNAseq) confirmed by qPCR,olfr478,y
same,olfr145 candidate OR (RNAseq) confirmed by qPCR,olfr145,y
same,olfr143 candidate OR (RNAseq) confirmed by qPCR,olfr143,y
same,olfr19 candidate OR (RNAseq) confirmed by qPCR,olfr19,y
same,olfr490 candidate OR (RNAseq) confirmed by qPCR,olfr490,n
